Test results published in BigSolDB 2.1.

## Cc1cnc(C(=O)O)c[n+]1[O-]
In acetone, 283.15 K
  solubility (mole fraction): 0.00157
In acetone, 288.15 K
  solubility (mole fraction): 0.00176
In acetone, 293.15 K
  solubility (mole fraction): 0.00198
In acetone, 298.15 K
  solubility (mole fraction): 0.00222
In acetone, 303.15 K
  solubility (mole fraction): 0.00249
In acetone, 308.15 K
  solubility (mole fraction): 0.00279
In acetone, 313.15 K
  solubility (mole fraction): 0.00317
In acetone, 318.15 K
  solubility (mole fraction): 0.00362
In acetonitrile, 283.15 K
  solubility (mole fraction): 0.00057
In acetonitrile, 288.15 K
  solubility (mole fraction): 0.000757
In acetonitrile, 293.15 K
  solubility (mole fraction): 0.00097
In acetonitrile, 298.15 K
  solubility (mole fraction): 0.00118
In acetonitrile, 303.15 K
  solubility (mole fraction): 0.00142
In acetonitrile, 308.15 K
  solubility (mole fraction): 0.00172
In acetonitrile, 313.15 K
  solubility (mole fraction): 0.00205
In acetonitrile, 318.15 K
  solubility (mole fraction): 0.00249
In methanol, 283.15 K
  solubility (mole fraction): 0.00211
In methanol, 288.15 K
  solubility (mole fraction): 0.00244
In methanol, 293.15 K
  solubility (mole fraction): 0.00285
In methanol, 298.15 K
  solubility (mole fraction): 0.00328
In methanol, 303.15 K
  solubility (mole fraction): 0.00381
In methanol, 308.15 K
  solubility (mole fraction): 0.00443
In methanol, 313.15 K
  solubility (mole fraction): 0.00517
In methanol, 318.15 K
  solubility (mole fraction): 0.00598
In water, 283.15 K
  solubility (mole fraction): 0.00198
In water, 288.15 K
  solubility (mole fraction): 0.00227
In water, 293.15 K
  solubility (mole fraction): 0.00265
In water, 298.15 K
  solubility (mole fraction): 0.0031
In water, 303.15 K
  solubility (mole fraction): 0.0036
In water, 308.15 K
  solubility (mole fraction): 0.00426
In water, 313.15 K
  solubility (mole fraction): 0.00498
In water, 318.15 K
  solubility (mole fraction): 0.00579
